Laboratory results: patent US20070049593A1 (priority 2004, published 2007)
pIC50: −log10 of the molar value. Structures can show the parent of a compound that is named as a salt.

These compounds were tested against T1, HCV polymerase (Hepatitis C virus genotype 1b, UniProt P26663) (assay: biochemical).
T1 construct: a region encoding NS5B (J Virol 1991 March, 65(3), 1105-13, 544 amino acids after deletion of 47 amino acids on the C-terminal); 6xHis (C); made in house; host or cells: Escherichia coli
T1 sequence (P26663 2420-2963): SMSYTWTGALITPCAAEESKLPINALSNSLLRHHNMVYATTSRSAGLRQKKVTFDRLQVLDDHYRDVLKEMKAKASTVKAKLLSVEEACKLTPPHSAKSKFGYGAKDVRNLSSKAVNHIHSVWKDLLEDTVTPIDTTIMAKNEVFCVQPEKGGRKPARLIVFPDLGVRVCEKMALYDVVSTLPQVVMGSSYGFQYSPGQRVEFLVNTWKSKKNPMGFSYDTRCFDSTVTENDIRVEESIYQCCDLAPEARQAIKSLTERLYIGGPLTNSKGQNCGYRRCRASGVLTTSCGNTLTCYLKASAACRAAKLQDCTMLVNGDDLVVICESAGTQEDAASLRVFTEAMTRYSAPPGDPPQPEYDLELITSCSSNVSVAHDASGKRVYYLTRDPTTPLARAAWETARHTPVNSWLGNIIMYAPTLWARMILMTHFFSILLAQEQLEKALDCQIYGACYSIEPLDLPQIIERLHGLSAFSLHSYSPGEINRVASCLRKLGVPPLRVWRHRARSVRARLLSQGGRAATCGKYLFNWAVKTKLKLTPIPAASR
Design: species or system HCV BK strain
Outline: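 Recombinant HCV BK-strain NS5B (C-terminal 47 aa deleted, His6-tagged, E. coli), 0.5 μg/ml, run with 5 μg/ml in vitro-transcribed RNA template (polyU/3′X), ATP/GTP/CTP 50 μM, UTP 2 μM plus [3H]UTP, pH 7.5, 25° C, 90 min. TCA-precipitated RNA counted by scintillation; IC50 from activity with vs without compound.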
`CCCN(CCN1CCCCC1)c1cccc2c1OCCn1c-2c(C2CCCCC2)c2ccc(C(N)=O)cc21` [Example 2-300, 12-cyclohexyl-4-{N-[2-(piperidin-1-yl)ethyl]-N-propylamino}-6,7-dihydro-5-oxa-7a-azadibenzo[a,e]azulene-9-carboxamide] was tested, and the pIC50 was > 7.00.
With `CCN1CCN(C(=O)CN(CC)c2cccc3c2OCCn2c-3c(C3CCCCC3)c3ccc(C(=O)O)cc32)CC1` [Example 2-301, 12-cyclohexyl-4-{N-ethyl-N-[2-(4-ethylpiperazin-1-yl)-2-oxoethyl]amino}-6,7-dihydro-5-oxa-7a-azadibenzo[a,e]azulene-9-carboxylic acid dihydrochloride] the pIC50 was > 7.00.
For `O=C(O)c1ccc2c(C3CCCCC3)c3n(c2c1)CCOc1c(-c2cccc(CO)c2)cccc1-3` [Example 2-302, 12-cyclohexyl-4-(3-hydroxymethylphenyl)-6,7-dihydro-5-oxa-7a-azadibenzo[a,e]azulene-9-carboxylic acid], the pIC50 was > 7.00.
For `CC(=O)N1CCN(C(=O)C(C)(C)NC(=O)c2ccc3c(C4CCCCC4)c4n(c3c2)CCOc2ccccc2-4)CC1` [Example 2-303, N-[2-(4-acetylpiperazin-1-yl)-1,1-dimethyl-2-oxoethyl]-12-cyclohexyl-6,7-dihydro-5-oxa-7a-azadibenzo[a,e]azulene-9-carboxamide], the pIC50 was > 7.00.
In the case of `CC(C)(NC(=O)c1ccc2c(C3CCCCC3)c3n(c2c1)CCOc1ccccc1-3)C(=O)N1CCN(CCO)CC1` [Example 2-304, N-{2-[4-(2-hydroxyethyl)piperazin-1-yl]-1,1-dimethyl-2-oxoethyl}-12-cyclohexyl-6,7-dihydro-5-oxa-7a-azadibenzo[a,e]azulene-9-carboxamide], the pIC50 was > 7.00.
`COCCN1CCN(C(=O)C(C)(C)NC(=O)c2ccc3c(C4CCCCC4)c4n(c3c2)CCOc2ccccc2-4)CC1` [Example 2-305, N-{2-[4-(2-methoxyethyl)piperazin-1-yl]-1,1-dimethyl-2-oxoethyl}-12-cyclohexyl-6,7-dihydro-5-oxa-7a-azadibenzo[a,e]azulene-9-carboxamide] was tested, and the pIC50 was > 7.00.
`COc1cccc2c1OCCn1c-2c(C2CCCCC2)c2ccc(C(=O)NC(C)(C)C(=O)Nc3ccc(C(=O)O)cc3)cc21` [Example 2-306, 4-{2-[(12-cyclohexyl-4-methoxy-6,7-dihydro-5-oxa-7a-azadibenzo[a,e]azulene-9-carbonyl)amino]-2-methylpropionylamino}benzoic acid] was tested, and the pIC50 was > 7.00.
With `COc1ccc(-c2cnc(C(C)(C)NC(=O)c3ccc4c(C5CCCCC5)c5n(c4c3)CCOc3ccccc3-5)[nH]2)cc1` [Example 2-307, N-{1-[5-(4-methoxyphenyl)-1H-imidazol-2-yl]-1-methylethyl}-12-cyclohexyl-6,7-dihydro-5-oxa-7a-azadibenzo[a,e]azulene-9-carboxamide] the pIC50 was > 7.00.
`COc1ccc2c(c1)OCCn1c-2c(C2CCCCC2)c2ccc(C(=O)N[C@@H](Cc3ccc(O)cc3)CN(C)C)cc21` [Example 2-308, N—[(S)-2-dimethylamino-1-(4-hydroxybenzyl)ethyl]-12-cyclohexyl-3-methoxy-6,7-dihydro-5-oxa-7a-azadibenzo[a,e]azulene-9-carboxamide] was tested, and the pIC50 was > 7.00.
`COC(=O)[C@H](CCCCNC(=O)OC(C)(C)C)NC(=O)c1ccc2c(C3CCCCC3)c3n(c2c1)CCOc1cc(OC)ccc1-3` [Example 2-309, methyl (S)-6-tert-butoxycarbonylamino-2-[(12-cyclohexyl-3-methoxy-6,7-dihydro-5-oxa-7a-azadibenzo[a,e]azulene-9-carbonyl)amino]hexanoate] showed a pIC50 of 6.00 to 7.00.
For `COc1ccc2c(c1)OCCn1c-2c(C2CCCCC2)c2ccc(C(=O)N[C@@H](Cc3c[nH]cn3)C(=O)O)cc21` [Example 2-310, (S)-2-[(12-cyclohexyl-3-methoxy-6,7-dihydro-5-oxa-7a-azadibenzo[a,e]azulene-9-carbonyl)amino]-3-(1H-imidazol-4-yl)propionic acid], the pIC50 was > 7.00.
`CC(C)(NC(=O)c1ccc2c(C3CCCCC3)c3n(c2c1)CCOc1ccccc1-3)c1nc2cc(-c3nnn[nH]3)ccc2[nH]1` [Example 2-311, N-{1-methyl-1-[5-(1H-tetrazol-5-yl)-1H-benzimidazol-2-yl]ethyl}-12-cyclohexyl-6,7-dihydro-5-oxa-7a-azadibenzo[a,e]azulene-9-carboxamide] was tested, and the pIC50 was > 7.00.
`CC(C)(NC(=O)c1ccc2c(C3CCCCC3)c3n(c2c1)CCOc1ccccc1-3)c1nc2ccccc2n1CC(=O)O` [Example 2-312, (2-{1-[(12-cyclohexyl-6,7-dihydro-5-oxa-7a-azadibenzo[a,e]azulene-9-carbonyl)amino]-1-methylethyl}benzimidazol-1-yl)acetic acid] was tested, and the pIC50 was > 7.00.
With `COC(=O)c1ccc2nc(C3(NC(=O)c4ccc5c(C6CCCCC6)c6n(c5c4)CCOc4ccccc4-6)CCN(C)CC3)[nH]c2c1` [Example 2-313, methyl 2-{4-[(12-cyclohexyl-6,7-dihydro-5-oxa-7a-azadibenzo[a,e]azulene-9-carbonyl)amino]-1-methylpiperidin-4-yl]-3H-benzimidazole-5-carboxylate] the pIC50 was > 7.00.
In the case of `COC[C@H](Cc1ccc(O)cc1)NC(=O)c1ccc2c(C3CCCCC3)c3n(c2c1)CCOc1cc(OC)ccc1-3` [Example 2-314, N—[(S)-1-(4-hydroxybenzyl)-2-methoxyethyl]-12-cyclohexyl-3-methoxy-6,7-dihydro-5-oxa-7a-azadibenzo[a,e]azulene-9-carboxamide], the pIC50 was > 7.00.
With `COC(=O)C(Cc1ccc(O)c(F)c1)NC(=O)c1ccc2c(C3CCCCC3)c3n(c2c1)CCOc1cc(OC)ccc1-3` (stereo not shown) [Example 2-315, methyl 2-[(12-cyclohexyl-3-methoxy-6,7-dihydro-5-oxa-7a-azadibenzo[a,e]azulene-9-carbonyl)amino]-3-(3-fluoro-4-hydroxyphenyl)propionate] the pIC50 was > 7.00.
With `COC(=O)[C@H](Cc1c[nH]c2ccc(O)cc12)NC(=O)c1ccc2c(C3CCCCC3)c3n(c2c1)CCOc1cc(OC)ccc1-3` [Example 2-316, methyl (S)-2-[(12-cyclohexyl-3-methoxy-6,7-dihydro-5-oxa-7a-azadibenzo[a,e]azulene-9-carbonyl)amino]-3-(5-hydroxy-1H-indol-3-yl)propionate] the pIC50 was > 7.00.
For `COC(=O)[C@H](Cc1ccc(NC(=O)OCc2ccccc2)cc1)NC(=O)c1ccc2c(C3CCCCC3)c3n(c2c1)CCOc1cc(OC)ccc1-3` [Example 2-317, methyl (S)-3-(4-benzyloxycarbonylaminophenyl)-2-[(12-cyclohexyl-3-methoxy-6,7-dihydro-5-oxa-7a-azadibenzo[a,e]azulene-9-carbonyl)amino]propionate], the pIC50 was > 7.00.
For `COc1ccc2c(c1)OCCn1c-2c(C2CCCCC2)c2ccc(C(=O)N[C@@H](Cc3ccc(NC(=O)OCc4ccccc4)cc3)C(=O)O)cc21` [Example 2-318, (S)-3-(4-benzyloxycarbonylaminophenyl)-2-[(12-cyclohexyl-3-methoxy-6,7-dihydro-5-oxa-7a-azadibenzo[a,e]azulene-9-carbonyl)amino]propionic acid], the pIC50 was > 7.00.
`COC(=O)[C@H](Cc1ccc(N)cc1)NC(=O)c1ccc2c(C3CCCCC3)c3n(c2c1)CCOc1cc(OC)ccc1-3` [Example 2-319, methyl (S)-3-(4-aminophenyl)-2-[(12-cyclohexyl-3-methoxy-6,7-dihydro-5-oxa-7a-azadibenzo[a,e]azulene-9-carbonyl)amino]propionate] was tested, and the pIC50 was > 7.00.
For `COc1ccc2c(c1)OCCn1c-2c(C2CCCCC2)c2ccc(C(=O)N[C@@H](Cc3ccc(N)cc3)C(=O)O)cc21` [Example 2-320, (S)-3-(4-aminophenyl)-2-[(12-cyclohexyl-3-methoxy-6,7-dihydro-5-oxa-7a-azadibenzo[a,e]azulene-9-carbonyl)amino]propionic acid], the pIC50 was > 7.00.
With `CC(C)(C)OC(=O)NC1CCN(C(=O)C(C)(C)NC(=O)c2ccc3c(C4CCCCC4)c4n(c3c2)CCOc2ccccc2-4)CC1` [Example 2-321, tert-butyl (1-{2-[(12-cyclohexyl-6,7-dihydro-5-oxa-7a-azadibenzo[a,e]azulene-9-carbonyl)amino]-2-methylpropionyl)piperidin-4-yl)carbamate] the pIC50 was > 7.00.
In the case of `CC(C)(NC(=O)c1ccc2c(C3CCCCC3)c3n(c2c1)CCOc1ccccc1-3)C(=O)N1CCC(O)C1` (stereo not shown) [Example 2-322, N-[2-(3-hydroxypyrrolidin-1-yl)-1,1-dimethyl-2-oxoethyl]-12-cyclohexyl-6,7-dihydro-5-oxa-7a-azadibenzo[a,e]azulene-9-carboxamide], the pIC50 was > 7.00.
`COCc1cccc(-c2cccc3c2OCCn2c-3c(C3CCCCC3)c3ccc(C(=O)O)cc32)c1` [Example 2-323, 12-cyclohexyl-4-(3-methoxymethylphenyl)-6,7-dihydro-5-oxa-7a-azadibenzo[a,e]azulene-9-carboxylic acid] was tested, and the pIC50 was > 7.00.
With `O=C(O)c1ccc2c(C3CCCCC3)c3n(c2c1)CCOc1c(Nc2ccccc2)cccc1-3` [Example 2-324, 12-cyclohexyl-4-phenylamino-6,7-dihydro-5-oxa-7a-azadibenzo[a,e]azulene-9-carboxylic acid] the pIC50 was > 7.00.
In the case of `O=C(O)c1ccc2c(C3CCCCC3)c3n(c2c1)CCOc1c(-c2ccccc2CO)cccc1-3` [Example 2-325, 12-cyclohexyl-4-(2-hydroxymethylphenyl)-6,7-dihydro-5-oxa-7a-azadibenzo[a,e]azulene-9-carboxylic acid], the pIC50 was > 7.00.
With `COCc1ccccc1-c1cccc2c1OCCn1c-2c(C2CCCCC2)c2ccc(C(=O)O)cc21` [Example 2-327, 12-cyclohexyl-4-(2-methoxymethylphenyl)-6,7-dihydro-5-oxa-7a-azadibenzo[a,e]azulene-9-carboxylic acid] the pIC50 was > 7.00.
In the case of `CN(C)Cc1cccc(-c2cccc3c2OCCn2c-3c(C3CCCCC3)c3ccc(C(=O)O)cc32)c1` [Example 2-328, 12-cyclohexyl-4-(3-dimethylaminomethylphenyl)-6,7-dihydro-5-oxa-7a-azadibenzo[a,e]azulene-9-carboxylic acid monohydrochloride], the pIC50 was > 7.00.
